Assay results: ChEMBL document CHEMBL1909046, “DrugMatrix in vitro pharmacology data”

Assays:
[1] = target: Sodium-dependent noradrenaline transporter (Homo sapiens, UniProt P23975); test: DRUGMATRIX: Norepinephrine Transporter radioligand binding (ligand: [125I] RTI-55); format: cell membranes, MDCK, Membrane; details: mdck; Not Active = under 50% inhibition at 10 µM
[2] = target: T1, Type-2 angiotensin II receptor (Homo sapiens, UniProt P50052); format: cell-based; details: cho-k1; note: in other assays of this panel Not Active means under 50% inhibition at 10 µM
T1 sequence (P50052 whole entry): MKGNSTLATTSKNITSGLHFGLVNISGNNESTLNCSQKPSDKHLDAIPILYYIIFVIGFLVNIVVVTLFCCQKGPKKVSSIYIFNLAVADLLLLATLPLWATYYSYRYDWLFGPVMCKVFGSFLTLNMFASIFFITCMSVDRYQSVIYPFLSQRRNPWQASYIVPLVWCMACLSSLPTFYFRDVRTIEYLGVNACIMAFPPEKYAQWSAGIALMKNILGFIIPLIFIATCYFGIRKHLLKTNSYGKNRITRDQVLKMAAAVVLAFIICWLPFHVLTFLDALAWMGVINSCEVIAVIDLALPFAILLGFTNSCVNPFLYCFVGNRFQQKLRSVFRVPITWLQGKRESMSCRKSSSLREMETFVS

[3] = DRUGMATRIX: ATPase, Na+/K+ enzyme inhibition (substrate: ATP); format: tissue-based, Sus scrofa, Heart; details: Not Active = under 50% inhibition at 10 µM
[4] = DRUGMATRIX: Calcium Channel Type L, Benzothiazepine radioligand binding (ligand: [3H] Diltiazem); format: cell membranes, Rattus norvegicus, Wistar, Brain, Membrane; details: Not Active = under 50% inhibition at 10 µM
Substance-P receptor = Substance-P receptor (Homo sapiens, UniProt P25103); format: cell membranes, CHO, Membrane; details: cho; note: in other assays of this panel Not Active means under 50% inhibition at 10 µM
[5] = DRUGMATRIX: Tumor Necrosis Factor (TNF), Non-Selective radioligand binding (ligand: [125I] TNF-alpha); format: cell membranes, Membrane; details: u-937; Not Active = under 50% inhibition at 10 µM
Cannabinoid receptor 1 = Cannabinoid receptor 1 (Homo sapiens, UniProt P21554); format: cell membranes, Membrane; details: chem-1; note: in other assays of this panel Not Active means under 50% inhibition at 10 µM
[6] = DRUGMATRIX: GABAA, Flunitrazepam, Central radioligand binding (ligand: [3H] Flunitrazepam); format: cell membranes, Rattus norvegicus, Wistar, Brain, Membrane; details: Not Active = under 50% inhibition at 10 µM
[7] = target: T2, Polyunsaturated fatty acid lipoxygenase ALOX15 (Oryctolagus cuniculus, UniProt P12530); test: biochemical; format: tissue-based, Reticulocytes; details: reticulocytes;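 note: inhibition of 15-lipoxygenase enzyme activity measured with linoleic acid as the substrate; in other assays of this panel Not Active means under 50% inhibition at 10 µM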
T2 sequence (P12530 whole entry): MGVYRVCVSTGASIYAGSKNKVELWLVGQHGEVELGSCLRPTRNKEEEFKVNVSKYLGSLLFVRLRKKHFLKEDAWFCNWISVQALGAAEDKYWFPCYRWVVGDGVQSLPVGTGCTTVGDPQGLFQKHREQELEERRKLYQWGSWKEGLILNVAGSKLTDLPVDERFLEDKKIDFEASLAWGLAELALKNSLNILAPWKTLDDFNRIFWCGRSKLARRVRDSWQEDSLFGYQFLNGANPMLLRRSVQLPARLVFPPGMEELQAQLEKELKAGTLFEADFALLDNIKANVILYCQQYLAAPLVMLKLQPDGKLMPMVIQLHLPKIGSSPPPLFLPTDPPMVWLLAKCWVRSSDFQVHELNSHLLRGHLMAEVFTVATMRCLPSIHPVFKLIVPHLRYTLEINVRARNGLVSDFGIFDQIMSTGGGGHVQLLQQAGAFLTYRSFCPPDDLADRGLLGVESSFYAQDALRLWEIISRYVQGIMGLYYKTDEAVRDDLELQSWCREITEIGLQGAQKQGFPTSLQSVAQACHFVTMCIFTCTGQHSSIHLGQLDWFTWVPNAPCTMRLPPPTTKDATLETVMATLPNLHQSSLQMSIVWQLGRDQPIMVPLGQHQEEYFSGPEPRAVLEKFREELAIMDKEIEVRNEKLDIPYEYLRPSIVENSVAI

Mu-type opioid receptor = Mu-type opioid receptor (Homo sapiens, UniProt P35372); test: DRUGMATRIX: Opiate mu (OP3, MOP) radioligand binding (ligand: [3H] Diprenorphine); format: cell membranes, CHO-K1, Membrane; details: cho-k1; Not Active = under 50% inhibition at 10 µM
Caspase-1 = target: T3, Caspase-1 (Homo sapiens, UniProt P29466); design: species or system Escherichia coli
T3 sequence (P29466 whole entry): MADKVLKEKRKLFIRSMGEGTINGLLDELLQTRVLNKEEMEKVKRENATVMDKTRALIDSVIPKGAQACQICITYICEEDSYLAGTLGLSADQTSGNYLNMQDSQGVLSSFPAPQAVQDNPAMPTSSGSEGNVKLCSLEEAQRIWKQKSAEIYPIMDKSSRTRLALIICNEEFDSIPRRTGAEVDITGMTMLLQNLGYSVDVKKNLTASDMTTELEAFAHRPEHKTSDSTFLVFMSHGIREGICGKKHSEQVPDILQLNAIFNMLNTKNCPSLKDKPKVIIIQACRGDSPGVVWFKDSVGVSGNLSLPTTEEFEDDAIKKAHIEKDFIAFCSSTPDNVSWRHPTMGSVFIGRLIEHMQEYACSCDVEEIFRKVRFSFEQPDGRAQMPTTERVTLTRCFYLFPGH

[8] = target: Mitogen-activated protein kinase 3 (Homo sapiens, UniProt P27361); test: DRUGMATRIX: Protein Serine/Threonine Kinase, ERK1 enzyme inhibition (substrate: Myelin Basic Protein); design: species or system Escherichia coli; details: Not Active = under 50% inhibition at 10 µM
[9] = target: Epidermal growth factor receptor (Homo sapiens, UniProt P00533); test: DRUGMATRIX: Protein Tyrosine Kinase, EGF Receptor enzyme inhibition (substrate: Poly(Glu:Tyr)); format: cell-based, Insect cells; details: insect cells; Not Active = under 50% inhibition at 10 µM
[10] = DRUGMATRIX: Purinergic P2X radioligand binding (ligand: [3H] alpha, beta-Methylene-ATP); format: cell membranes, Oryctolagus cuniculus, New Zealand albino, Urinary bladder, Membrane; details: Not Active = under 50% inhibition at 10 µM
Cytochrome P450 2E1 = Cytochrome P450 2E1 (Homo sapiens, UniProt P05181); details: bti-tn-5b1-4; note: in other assays of this panel Not Active means under 50% inhibition at 10 µM
Cytochrome P450 2E1, sequence (P05181 whole entry): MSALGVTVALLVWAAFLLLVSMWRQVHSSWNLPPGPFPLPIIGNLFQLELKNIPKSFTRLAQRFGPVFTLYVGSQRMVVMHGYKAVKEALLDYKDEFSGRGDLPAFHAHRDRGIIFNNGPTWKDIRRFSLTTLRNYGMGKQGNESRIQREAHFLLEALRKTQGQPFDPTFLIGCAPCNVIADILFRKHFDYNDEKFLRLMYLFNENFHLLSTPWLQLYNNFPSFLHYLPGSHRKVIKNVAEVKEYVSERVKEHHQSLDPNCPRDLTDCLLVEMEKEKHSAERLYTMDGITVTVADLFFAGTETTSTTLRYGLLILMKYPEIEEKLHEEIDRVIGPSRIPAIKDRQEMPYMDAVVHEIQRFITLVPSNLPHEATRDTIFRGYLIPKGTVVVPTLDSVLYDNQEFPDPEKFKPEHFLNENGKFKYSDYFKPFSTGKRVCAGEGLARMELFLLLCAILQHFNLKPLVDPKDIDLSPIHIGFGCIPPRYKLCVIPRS

Mu-type opioid receptor, sequence (P35372 whole entry): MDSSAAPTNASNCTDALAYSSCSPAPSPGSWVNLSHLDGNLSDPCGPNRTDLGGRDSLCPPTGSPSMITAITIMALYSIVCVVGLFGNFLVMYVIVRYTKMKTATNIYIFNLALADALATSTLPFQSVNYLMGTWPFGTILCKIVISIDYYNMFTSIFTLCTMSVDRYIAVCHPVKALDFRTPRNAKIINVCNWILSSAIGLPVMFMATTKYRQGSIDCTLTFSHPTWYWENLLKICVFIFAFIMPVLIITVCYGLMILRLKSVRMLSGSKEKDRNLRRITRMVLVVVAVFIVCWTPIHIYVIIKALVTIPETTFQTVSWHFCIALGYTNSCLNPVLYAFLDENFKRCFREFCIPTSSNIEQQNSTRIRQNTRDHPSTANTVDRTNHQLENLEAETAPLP
Mitogen-activated protein kinase 3, sequence (P27361 whole entry): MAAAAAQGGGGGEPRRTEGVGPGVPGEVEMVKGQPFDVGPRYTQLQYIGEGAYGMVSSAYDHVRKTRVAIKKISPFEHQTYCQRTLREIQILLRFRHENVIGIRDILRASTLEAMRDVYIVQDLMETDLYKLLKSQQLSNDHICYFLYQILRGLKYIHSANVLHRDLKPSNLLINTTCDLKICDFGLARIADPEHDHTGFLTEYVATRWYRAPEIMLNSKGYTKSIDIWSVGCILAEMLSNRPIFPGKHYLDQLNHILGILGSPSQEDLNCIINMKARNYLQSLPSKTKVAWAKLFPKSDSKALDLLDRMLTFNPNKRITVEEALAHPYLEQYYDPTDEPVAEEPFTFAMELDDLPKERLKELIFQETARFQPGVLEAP
Sodium-dependent noradrenaline transporter, sequence (P23975 whole entry): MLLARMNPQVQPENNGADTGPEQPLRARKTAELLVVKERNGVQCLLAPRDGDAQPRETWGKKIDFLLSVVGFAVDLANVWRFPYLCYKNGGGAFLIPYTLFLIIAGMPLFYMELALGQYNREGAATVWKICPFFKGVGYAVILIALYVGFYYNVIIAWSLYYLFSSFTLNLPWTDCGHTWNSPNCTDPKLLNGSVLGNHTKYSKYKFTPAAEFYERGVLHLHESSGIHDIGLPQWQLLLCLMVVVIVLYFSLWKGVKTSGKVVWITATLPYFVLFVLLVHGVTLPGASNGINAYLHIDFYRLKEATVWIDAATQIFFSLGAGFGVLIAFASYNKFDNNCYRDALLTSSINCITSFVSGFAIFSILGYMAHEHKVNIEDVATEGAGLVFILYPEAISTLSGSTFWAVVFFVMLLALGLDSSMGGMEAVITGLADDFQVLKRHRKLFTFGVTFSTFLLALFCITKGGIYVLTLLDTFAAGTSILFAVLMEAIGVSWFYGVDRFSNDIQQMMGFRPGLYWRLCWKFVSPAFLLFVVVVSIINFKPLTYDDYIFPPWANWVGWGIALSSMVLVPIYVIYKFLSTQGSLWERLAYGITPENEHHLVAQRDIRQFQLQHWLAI
Cannabinoid receptor 1, sequence (P21554 whole entry): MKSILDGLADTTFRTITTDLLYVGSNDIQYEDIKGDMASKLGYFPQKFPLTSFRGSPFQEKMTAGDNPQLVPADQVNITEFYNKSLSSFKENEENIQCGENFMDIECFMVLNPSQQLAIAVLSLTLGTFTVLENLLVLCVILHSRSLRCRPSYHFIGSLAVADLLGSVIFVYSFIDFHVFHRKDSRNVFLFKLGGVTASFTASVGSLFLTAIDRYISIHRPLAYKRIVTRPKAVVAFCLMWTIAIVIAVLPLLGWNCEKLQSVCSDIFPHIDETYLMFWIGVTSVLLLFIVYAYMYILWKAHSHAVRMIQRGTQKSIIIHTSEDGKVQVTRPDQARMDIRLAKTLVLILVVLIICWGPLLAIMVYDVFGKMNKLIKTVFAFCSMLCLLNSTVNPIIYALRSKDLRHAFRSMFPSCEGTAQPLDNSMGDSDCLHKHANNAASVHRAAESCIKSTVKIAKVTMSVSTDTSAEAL
Substance-P receptor, sequence (P25103 whole entry): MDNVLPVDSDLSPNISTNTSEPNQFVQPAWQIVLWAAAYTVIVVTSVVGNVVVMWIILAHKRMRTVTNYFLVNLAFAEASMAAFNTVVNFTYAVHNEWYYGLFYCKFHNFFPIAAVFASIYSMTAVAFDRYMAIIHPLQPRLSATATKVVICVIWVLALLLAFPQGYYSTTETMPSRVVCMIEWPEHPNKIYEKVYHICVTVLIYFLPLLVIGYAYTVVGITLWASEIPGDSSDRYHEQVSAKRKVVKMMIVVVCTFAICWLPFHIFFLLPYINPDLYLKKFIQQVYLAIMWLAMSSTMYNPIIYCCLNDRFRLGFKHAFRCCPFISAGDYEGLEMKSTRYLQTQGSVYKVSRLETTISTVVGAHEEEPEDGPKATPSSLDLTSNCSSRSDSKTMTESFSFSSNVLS
Epidermal growth factor receptor, sequence (P00533 whole entry): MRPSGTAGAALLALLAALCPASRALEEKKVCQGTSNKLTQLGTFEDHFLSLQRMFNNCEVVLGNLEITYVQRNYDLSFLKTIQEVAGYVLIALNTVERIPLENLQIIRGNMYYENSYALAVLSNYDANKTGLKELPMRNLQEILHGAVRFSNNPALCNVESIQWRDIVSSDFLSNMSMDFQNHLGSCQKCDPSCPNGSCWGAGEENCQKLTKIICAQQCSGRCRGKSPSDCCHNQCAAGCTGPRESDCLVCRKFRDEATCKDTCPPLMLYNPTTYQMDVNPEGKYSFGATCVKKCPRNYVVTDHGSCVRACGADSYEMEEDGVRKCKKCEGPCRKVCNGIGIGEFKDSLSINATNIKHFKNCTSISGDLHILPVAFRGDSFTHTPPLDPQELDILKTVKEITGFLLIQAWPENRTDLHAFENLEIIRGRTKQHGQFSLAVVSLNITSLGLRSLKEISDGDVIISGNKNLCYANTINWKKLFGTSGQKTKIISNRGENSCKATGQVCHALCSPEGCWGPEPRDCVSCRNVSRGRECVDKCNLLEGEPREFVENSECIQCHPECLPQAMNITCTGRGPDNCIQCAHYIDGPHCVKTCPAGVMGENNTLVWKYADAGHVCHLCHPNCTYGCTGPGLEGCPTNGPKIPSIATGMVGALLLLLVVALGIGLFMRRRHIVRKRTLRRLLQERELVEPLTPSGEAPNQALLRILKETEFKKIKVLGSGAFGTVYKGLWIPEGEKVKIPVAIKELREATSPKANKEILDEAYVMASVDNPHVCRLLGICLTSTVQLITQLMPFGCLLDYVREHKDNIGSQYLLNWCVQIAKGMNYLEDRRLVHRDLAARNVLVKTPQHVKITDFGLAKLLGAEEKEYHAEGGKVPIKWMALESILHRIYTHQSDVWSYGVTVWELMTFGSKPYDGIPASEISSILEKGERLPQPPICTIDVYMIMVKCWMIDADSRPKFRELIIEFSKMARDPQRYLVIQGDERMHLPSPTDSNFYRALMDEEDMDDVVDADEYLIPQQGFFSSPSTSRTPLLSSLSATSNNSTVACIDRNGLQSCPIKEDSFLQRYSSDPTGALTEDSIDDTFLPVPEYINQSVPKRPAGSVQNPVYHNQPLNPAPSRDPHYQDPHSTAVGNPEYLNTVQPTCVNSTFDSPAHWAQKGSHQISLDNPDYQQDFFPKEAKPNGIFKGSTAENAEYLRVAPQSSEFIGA

CC(C)[C@H](N)C(=O)OCCOCn1cnc2c(=O)nc(N)[nH]c21 [VALACYCLOVIR]
Not Active: IC50 [1] | IC50 [2] | IC50 [3] | Ki [3] | IC50 [4] | Ki [4] | IC50 (Substance-P receptor) | IC50 [5] | Ki [5] | IC50 (Cannabinoid receptor 1) | IC50 [6] | Ki [6] | IC50 [7] | IC50 (Mu-type opioid receptor) | IC50 (Caspase-1) | IC50 [8] | IC50 [9] | IC50 [10] | Ki [10] | IC50 (Cytochrome P450 2E1) | Ki (Cytochrome P450 2E1)

Cc1cc(NS(=O)(=O)c2ccc(N)cc2)no1 [SULFAMETHOXAZOLE]
Not Active: IC50 [1] | IC50 [2] | IC50 [3] | Ki [3] | IC50 [4] | Ki [4] | IC50 (Substance-P receptor) | IC50 [5] | Ki [5] | IC50 (Cannabinoid receptor 1) | IC50 [6] | Ki [6] | IC50 [7] | IC50 (Mu-type opioid receptor) | IC50 (Caspase-1) | IC50 [8] | IC50 [9] | IC50 [10] | Ki [10] | IC50 (Cytochrome P450 2E1) | Ki (Cytochrome P450 2E1)

CC1=C(/C=C/C(C)=C/C=C/C(C)=C\C(=O)O)C(C)(C)CCC1 [ISOTRETINOIN]
Not Active: IC50 [1] | IC50 [2] | IC50 [3] | Ki [3] | IC50 [4] | Ki [4] | IC50 (Substance-P receptor) | IC50 [5] | Ki [5] | IC50 (Cannabinoid receptor 1) | IC50 [6] | Ki [6] | IC50 [7] | IC50 (Mu-type opioid receptor) | IC50 (Caspase-1) | IC50 [8] | IC50 [9] | IC50 [10] | Ki [10] | IC50 (Cytochrome P450 2E1) | Ki (Cytochrome P450 2E1)

C[C@]12Cc3c[nH]nc3C[C@@H]1CC[C@@H]1[C@@H]2CC[C@@]2(C)[C@H]1CC[C@]2(C)O [STANOZOLOL]
Not Active: IC50 [1] | IC50 [2] | IC50 [3] | Ki [3] | IC50 [4] | Ki [4] | IC50 (Substance-P receptor) | IC50 [5] | Ki [5] | IC50 (Cannabinoid receptor 1) | IC50 [6] | Ki [6] | IC50 [7] | IC50 (Mu-type opioid receptor) | IC50 (Caspase-1) | IC50 [8] | IC50 [9] | IC50 [10] | Ki [10] | IC50 (Cytochrome P450 2E1) | Ki (Cytochrome P450 2E1)

NCCCC[C@H](N[C@@H](CCc1ccccc1)C(=O)O)C(=O)N1CCC[C@H]1C(=O)O [LISINOPRIL ANHYDROUS]
Not Active: IC50 [1] | IC50 [2] | IC50 [3] | Ki [3] | IC50 [4] | Ki [4] | IC50 (Substance-P receptor) | IC50 [5] | Ki [5] | IC50 (Cannabinoid receptor 1) | IC50 [6] | Ki [6] | IC50 [7] | IC50 (Mu-type opioid receptor) | IC50 (Caspase-1) | IC50 [8] | IC50 [9] | IC50 [10] | Ki [10] | IC50 (Cytochrome P450 2E1) | Ki (Cytochrome P450 2E1)

CC(=O)S[C@@H]1CC2=CC(=O)CC[C@]2(C)[C@H]2CC[C@@]3(C)[C@@H](CC[C@@]34CCC(=O)O4)[C@H]12 [SPIRONOLACTONE]
Not Active: IC50 [1] | IC50 [2] | IC50 [3] | Ki [3] | IC50 [4] | Ki [4] | IC50 (Substance-P receptor) | IC50 [5] | Ki [5] | IC50 (Cannabinoid receptor 1) | IC50 [6] | Ki [6] | IC50 [7] | IC50 (Mu-type opioid receptor) | IC50 (Caspase-1) | IC50 [8] | IC50 [9] | IC50 [10] | Ki [10] | IC50 (Cytochrome P450 2E1) | Ki (Cytochrome P450 2E1)

CN(C)[C@@H]1C(O)=C(C(N)=O)C(=O)[C@@]2(O)C(O)=C3C(=O)c4c(O)cccc4[C@@](C)(O)[C@H]3C[C@@H]12 [TETRACYCLINE]
Not Active: IC50 [1] | IC50 [2] | IC50 [3] | Ki [3] | IC50 [4] | Ki [4] | IC50 (Substance-P receptor) | IC50 [5] | Ki [5] | IC50 (Cannabinoid receptor 1) | IC50 [6] | Ki [6] | IC50 [7] | IC50 (Mu-type opioid receptor) | IC50 (Caspase-1) | IC50 [8] | IC50 [9] | IC50 [10] | Ki [10] | IC50 (Cytochrome P450 2E1) | Ki (Cytochrome P450 2E1)

Nc1ccc(S(=O)(=O)Nc2ccnn2-c2ccccc2)cc1 [SULFAPHENAZOLE]
Not Active: IC50 [1] | IC50 [2] | IC50 [3] | Ki [3] | IC50 [4] | Ki [4] | IC50 (Substance-P receptor) | IC50 [5] | Ki [5] | IC50 (Cannabinoid receptor 1) | IC50 [6] | Ki [6] | IC50 [7] | IC50 (Mu-type opioid receptor) | IC50 (Caspase-1) | IC50 [8] | IC50 [9] | IC50 [10] | Ki [10] | IC50 (Cytochrome P450 2E1) | Ki (Cytochrome P450 2E1)
